Non-standard residues stand in square brackets, D forms with d. Residues, ends and D or L forms follow the SMILES beside them. *: point of attachment. boroGlu = O=C(O)CC[C@H](N*)B(O)O; Gly(cPr) = N[C@H](C(=O)O)C1CC1
Biological target: His6-CylA-27-412 (Enterococcus faecalis, UniProt A0A2P6AWB8)
Test: In vitro co-operative pore formation assay (pyranine-encapsulated DOPC liposomes, mCylLS:mCylLL)
Format: biochemical
Text: In vitro pore formation assay for determining inhibitor effectiveness with high sensitivity. The assay uses pore formation as an indicator of toxin maturation. […] Pore formation dissipates a pH gradient between the interior of the liposome and the surrounding buffer increasing pyranine fluorescence.
Within the liposomes was a buffer of lower pH (6.0), and therefore any pore formation or membrane disruption would result in an increase in internal pH, which increases the fluorescence signal of the pyranine. In this way, pyranine fluorescence can be correlated to toxin activation allowing for the determination of EC50 values.
To a well in a black 96-well plate (200 μL) was added 90 μL high pH buffer (5 mM MES, 5 mM Tricine, 5 mM NaCl, pH 7.4) containing CylA (4 nM final concentration). After adding inhibitor, the mixture was incubated at room temperature for 10 min then freshly prepared (no more than 2 days old) pyranine encapsulated DOPC liposomes were added such that the total DOPC concentration was 80 μM. […] The resulting curves were max-min normalized yielding the fraction of permeabilized liposomes. […] This experiment was performed in duplicate or triplicate for each inhibitor at each concentration. […] Errors presented are those calculated by Origin 7 during the fitting process.

Sequence of His6-CylA-27-412 (A0A2P6AWB8 entry or part of it): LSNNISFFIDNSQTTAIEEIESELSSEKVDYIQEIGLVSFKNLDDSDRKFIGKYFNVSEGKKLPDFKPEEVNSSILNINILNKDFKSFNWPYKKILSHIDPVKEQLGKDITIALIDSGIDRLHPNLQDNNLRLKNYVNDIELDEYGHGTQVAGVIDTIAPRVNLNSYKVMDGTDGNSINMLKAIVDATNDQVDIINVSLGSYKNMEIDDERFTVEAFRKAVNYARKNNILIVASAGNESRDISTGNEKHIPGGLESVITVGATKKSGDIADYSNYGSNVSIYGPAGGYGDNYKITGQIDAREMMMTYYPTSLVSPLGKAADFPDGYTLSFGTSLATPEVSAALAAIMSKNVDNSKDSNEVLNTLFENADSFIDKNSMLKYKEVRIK

Q: `CC(=O)NCC(=O)N[C@@H](CC(=O)O)C(=O)N[C@H](C(=O)N[C@@H](CCC(N)=O)C(=O)N[C@@H](C)C(=O)N[C@@H](CCC(=O)O)B(O)O)C1CC1` [Compound 9, Ac-Gly-Asp-Cpg-Gln-Ala-Glu-BA] (Ac-GD[Gly(cPr)]QA-boroGlu) was tested. Which EC50 did it give?
A: 0.0125 ± 0.0014 µM

From patent US20260337253A1, “INHIBITION OF GUT BACTERIA” (priority 2025, published 2026)
